# Experimental data taken from PMC10783051 (Microbiology Spectrum, 2023).
# What was measured:
# [1] = tested on: Streptomyces venezuelae ATCC 10712; assay: In planta co-inoculation on tomato roots, UPLC-MS of rhizosphere extracts; settings: tomato roots on Hoagland agar, 7 days at 22°C, UPLC-MS of agar near the roots, four biological replicates
# Experimental: For the in planta studies, tomato seeds (Solanum lycopersicum var. Moneymaker) were sterilized following the protocol described by ([26]). Briefly, tomato seeds were primarily sterilized in 70% ethanol (vol/vol) by gently shaking for 2 min. Further, the ethanol was removed and the seeds were added to 50 mL of the sterilization solution [4.5 mL of bleach containing 9.5% (vol/vol) of active chlorine, 0.01 g of Tween 80, and 45.5 mL of sterile water] and gently shaken for 10 min. Seeds were thereafter washed 10 times with water to eliminate sterilization solution residues. […]
# All UPLC-MS analyses were performed using an Agilent 1290 Infinity II coupled with a diode array detector and a mass detector (Jet Stream ESI-Q-TOF 6530) in positive mode with the parameters set up as follows: capillary voltage of 3.5 kV, nebulizer pressure of 35 lb/in^2, drying gas of 8 L/min, drying gas temperature of 300°C, flow rate of sheath gas of 11 L/min, sheath gas temperature of 350°C, fragmentor voltage of 175 V, skimmer voltage of 65 V, and octopole radiofrequency of 750 V. Accurate mass spectra were recorded in the m/z range of 300–1,700. […]
# Streptomyces = settings: cited from earlier work
# Description: As soils are carbon-rich and nitrogen-poor environments, exogenous CLP degradation may thus represent a foraging strategy for Streptomyces to access alternative sources of nutriments directly emanating from diverse microbial competitors. We assume that, in this ...
# tobacco cells = settings: cited from earlier work
# Description: Additionally, CLPs are key multifunctional BSMs whose biocontrol-associated activities often involve membrane perturbation and pore formation ([16]). This CLP-membrane interaction is enabled by the peculiar amphiphilic three-dimensional structures of those CLPs ([17], [18]). However, since the degradation alters their structures, it is likely associated with a loss of function. […] Likewise, linearization of su ...
# [2] = tested on: Streptomyces venezuelae ATCC 10712; assay: Confrontation assay B. velezensis GA1 / S. venezuelae on REM plate, UPLC-MS metabolite profiling of the agar
# Experimental: Confrontation assays were performed on square Petri dishes (12 × 12 cm) with 40 mL of REM solid medium at 26°C (REM supplemented with 14 g/L of agar).
# S. venezuelae ATCC 10712 was inoculated as stripes (1 × 12 cm) in the middle of the plate with 40 µL of spore suspension (10^7 spores/mL) and spread with a cotton swab. Next, B. velezensis GA1 cells were collected from fresh precultures as described and adjusted to OD600 nm 0.1. Then, 5 µL of B. velezensis GA1 suspension was spotted at 1 cm of the Streptomyces line. Control plates were done following the same procedure without the inoculation of either Bacillus or Streptomyces. Plates were then incubated for 3 days at 26°C in the dark. Pictures of the plates were then captured using a CoolPix camera (NIKKOR ×60 wide optical zoom extra-low dispersion vibration reduction 4.3–258.0 mm 1:33 to 6.5).
# The extraction of the metabolites from the agar was performed as follows. For the confrontation experiment, we precisely sampled the area of agar (2 × 1 cm) near the colony of Bacillus or Streptomyces (the confrontation zone is 1 cm wide) with standardized plugs. For the in planta, we sampled the agar area (1 × 1 cm) near the tomato roots. In both cases, the agar samples were transferred to Eppendorf tubes and placed for 24 h at −20°C. Then, the agar was thawed at room temperature and centrifuged for 10 min at 13,000 rpm. The supernatants were then collected and filtered (0.22-µm pore size filters) before UPLC-MS analysis.
# All UPLC-MS analyses were performed using an Agilent 1290 Infinity II coupled with a diode array detector and a mass detector (Jet Stream ESI-Q-TOF 6530) in positive mode with the parameters set up as follows: capillary voltage of 3.5 kV, nebulizer pressure of 35 lb/in^2, drying gas of 8 L/min, drying gas temperature of 300°C, flow rate of sheath gas of 11 L/min, sheath gas temperature of 350°C, fragmentor voltage of 175 V, skimmer voltage of 65 V, and octopole radiofrequency of 750 V. Accurate mass spectra were recorded in the m/z range of 300–1,700. For untargeted MS/MS, we used the same MS1 parameters as described. We added MS2 untargeted acquisition mode with the parameters as follows: MS/MS range 50–1,700 m/z; MS/MS scan rate 3 spectra/s; isolation width MS/MS medium (approx. 4 AMU), Decision Engine Native; fixed collision energies of 25 and 40 V for surfactin, 50 V for iturin, and 60 V for fengycin experiments; precursor selection: three for the surfactin experiment, four for the iturin and fengycin experiments, threshold 1,500 (Abs), isotope model common, active exclusion after two spectra and release after 0.5 min, sorting the precursors by charge state then abundance (charge state preference 1). For targeted MS/MS, we used the same MS1 parameters MS/MS range of 50–1,700 m/z or 50–3,200 (when required for Pseudomonas CLPs with mass >1,700 Da), MS/MS scan rate 3 spectra/s, isolation width MS/MS narrow (approx. 1.3 amu), and fixed collision energies 20, 40, and 60V. In all experiments, a C18 Acquity UPLC ethylene bridged hybrid column (2.1 mm × 50 mm × 1.7 µm; Waters Corporation, Milford, MA, USA) was used at a flow rate of 0.6 mL/min and a temperature of 40°C. The injection volume was 20 µL, and the diode array detector scanned a wavelength spectrum between 190 and 600 nm. Unless otherwise mentioned, a gradient of acidified water (0.1% formic acid) (solvent A) and of acidified acetonitrile (0.1% formic acid) (solvent B) was used as mobile phase with a constant flow rate of 0.6 mL/min, starting at 10% B and rising to 100% B in 20 min. Solvent B was kept at 100% for 4 min before going back to the initial ratio. MassHunter Workstation (version 10.0) and ChemStation software were used for data collection and analysis. For untargeted analysis of iturin and fengycin degradation products, we used the same solvent and flow rate, starting at 10% B to 20% in 2 min, then rising to 50% B at 14 min and 100% B at 25 min, followed by 100% B and 5 at 10% B at 6 min.
substance,measurement,setting,value
surfactin,linear forms in rhizosphere extracts upon co-inoculation of Bv with Sv,[1],high proportion of linear
same,effect on aerial mycelium formation of Streptomyces,Streptomyces,inhibitory effect
same,effect of linearization on the potential to stimulate immune-related defense responses,tobacco cells,almost full loss
same,abundance of the CLP in the confrontation zone compared with monocultures,[2],decrease in the abundance
same,shorter CLP fragment detected in the confrontation zone but not in Bv monoculture,[2],loss of the fatty acid from the linear form
